# Experimental data reported in ChEMBL document CHEMBL4346685, “Naphthyl quinoxaline thymidine conjugate is a potent anticancer agent post UVA activation and elicits marked inhibition of tumor growth through vaccination” (Eur J Med Chem, 2019).
# pIC50: −log10 of the molar value. Activity calls are given as the source filed them. The calls are words filed in the database; no cut-off is given here.
# Legend:
# Bel-7402 [1] = assay: Antiproliferative activity against human Bel7402 cells assessed as reduction in cell viability preincubated for 5 hrs followed by compound washout and subsequent 3 mW/cm2 UVA irradiation for 20 mins measured 48 hrs post irradiation by CCK8 assay; assay type: functional, cell-based; conditions: Bel-7402, light or radiation study
# MCF7 [2] = assay: Antiproliferative activity against human MCF7 cells assessed as reduction in cell viability preincubated for 5 hrs followed by compound washout and subsequent 3 mW/cm2 UVA irradiation measured 48 hrs post irradiation by CCK8 assay; assay type: functional, cell-based; conditions: MCF7, light or radiation study
# A-375 [3] = assay: Antiproliferative activity against human A375 cells assessed as reduction in cell viability preincubated for 5 hrs followed by compound washout and subsequent 3 mW/cm2 UVA irradiation measured 48 hrs post irradiation by CCK8 assay; assay type: functional, cell-based; conditions: A-375, light or radiation study
# H22 [4] = assay: Antiproliferative activity against mouse H22 cells assessed as reduction in cell viability preincubated for 5 hrs followed by compound washout and subsequent 2 mW/cm2 UVA irradiation measured 48 hrs post irradiation by CCK8 assay; assay type: functional, cell-based; conditions: H22, light or radiation study
# Bel-7402 [5] = assay: Dark toxicity against human Bel7402 cells up to 500 nM incubated for 5 hrs followed by compound washout and measured after 48 hrs by CCK8 assay; assay type: cell-based; conditions: bel-7402, 5 h
# MCF7 [6] = assay: Dark toxicity against human MCF7 cells up to 500 nM preincubated for 5 hrs followed by compound washout and measured after 48 hrs by CCK8 assay; assay type: cell-based; conditions: mcf7, 48 h
# A-375 [7] = assay: Dark toxicity against human A375 cells up to 500 nM preincubated for 5 hrs followed by compound washout and measured after 48 hrs by CCK8 assay; assay type: cell-based; conditions: a-375, 48 h
# H22 [8] = assay: Dark toxicity against mouse H22 cells up to 500 nM preincubated for 5 hrs followed by compound washout and measured after 48 hrs by CCK8 assay; assay type: cell-based; conditions: h22, 48 h
# MCF7 [9] = assay: Induction of reactive oxygen species generation in human MCF7 cells up to 200 nM preincubated for 5 hrs followed by compound washout and subsequent 3 mW/cm2 UVA irradiation measured 10 mins post irradiation by DCFH-DA probe based fluorescence microscopic analysis; assay type: functional, cell-based
# H22 [10] = assay: Induction of immunogenic cell death in mouse H22 cells assessed as extracellular ATP level at 250 nM preincubated for 5 hrs followed by compound washout and subsequent 2 mW/cm2 UVA irradiation for 20 mins measured 2 hrs post irradiation by chemiluminescence-based assay; assay type: functional
# H22 [11] = assay: Induction of immunogenic cell death in mouse H22 cells assessed as […] in extracellular ATP level at 250 nM incubated for 5 hrs followed by compound washout and subsequent 2 mW/cm2 UVA irradiation measured 5 hrs post irradiation by chemiluminescence-based assay; assay type: functional
# H22 [12] = assay: Induction of immunogenic cell death in mouse H22 cells assessed as extracellular HMGB1 level at 120 to 250 nM preincubated for 5 hrs followed by compound washout and subsequent 2 mW/cm2 UVA irradiation measured 2 hrs post irradiation by ELISA; assay type: functional
# H22 [13] = assay: Dark toxicity in mouse H22 cells assessed as increase in extracellular HMGB1 level at 120 to 250 nM incubated for 5 hrs by ELISA; assay type: cell-based; conditions: h22, 5 h, 0.25 µM
# H22 [14] = assay: Induction of immunogenic cell death in mouse H22 cells assessed as increase in intracellular calreticulin level at 60 to 250 nM preincubated for 5 hrs followed by compound washout and subsequent 2 mW/cm2 UVA irradiation measured 2 hrs post irradiation by Hoechst staining based fluorescence microscopic analysis; assay type: functional
# H22 [15] = assay: Antitumor activity against mouse H22 cells allografted in immunocompetent Balb/c mouse assessed as inhibition of tumour formation at 60 nM incubated with cells for 5 hrs prior to 20 mins 2 mW/cm2 UVA irradiation post compound washout followed by vaccination and measured over 10 days; assay type: functional, cell-based
# H22 [16] = assay: Antitumor activity against mouse H22 cells allografted in immunocompetent Balb/c mouse assessed as inhibition of tumour formation at 60 nM incubated with cells for 5 hrs prior to 20 mins 2 mW/cm2 UVA irradiation post compound washout followed by vaccination and measured over 20 days; assay type: functional, cell-based
# H22 [17] = assay: Antitumor activity against mouse H22 cells allografted in immunocompetent Balb/c mouse assessed as inhibition of tumour formation at 250 nM incubated with cells for 5 hrs prior to 20 mins 2 mW/cm2 UVA irradiation post compound washout followed by vaccination and measured within 5 days; assay type: functional, cell-based
# H22 [18] = assay: Antitumor activity against mouse H22 cells allografted in immunocompetent Balb/c mouse assessed as decrease in tumour formation at challenge site at 250 nM incubated with cells for 5 hrs followed by compound washout before 2 mW/cm2 UVA irradiation for 20 mins and followed by vaccination and subsequent H22 cells addition 10 days post vaccination and measured on day 25; assay type: functional, cell-based
# H22 [19] = assay: Antitumor activity against mouse H22 cells allografted in immunocompetent Balb/c mouse assessed as decrease in tumour formation at challenge site at 250 nM incubated with cells for 5 hrs followed by compound washout before 2 mW/cm2 UVA irradiation for 20 mins and followed by vaccination and subsequent H22 cells addition 10 days post vaccination and measured after 2 weeks; assay type: functional, cell-based
# H22 [20] = assay: Antitumor activity against mouse H22 cells allografted in immunocompetent Balb/c mouse assessed as decrease in tumour formation at challenge site at 250 nM incubated with cells for 5 hrs followed by compound washout before 2 mW/cm2 UVA irradiation for 20 mins and followed by vaccination and subsequent H22 cells addition 10 days post vaccination and measured after 2 months; assay type: functional, cell-based
# [21] = Toxicity in immunocompetent BALB/c mouse allografted with mouse H22 cells assessed as change in body weight at 250 nM incubated with cells for 5 hrs followed by compound washout before 2 mW/cm2 UVA irradiation for 20 mins and followed by vaccination and subsequent H22 cells addition 10 days post vaccination and measured over 30 days; conditions: 0.25 µM
# H22 [22] = assay: Antitumor activity against mouse H22 cells allografted in immunocompetent Balb/c mouse assessed as decrease in lump formation at vaccination site at 250 nM incubated with cells for 5 hrs prior to 20 mins 2 mW/cm2 UVA irradiation post compound washout followed by vaccination and measured over 30 days; assay type: functional, cell-based
# H22 [23] = assay: Induction of immunogenic cell death in mouse H22 cells assessed as increase in intracellular calreticulin level at 60 to 250 nM preincubated for 5 hrs followed by compound washout and subsequent 2 mW/cm2 UVA irradiation for 20 mins measured 2 hrs post irradiation by flow cytometric analysis; assay type: functional, cell-based
# H22 [24] = assay: Dark toxicity in mouse H22 cells assessed as increase in intracellular calreticulin level at 60 to 250 nM measured after 5 hrs by flow cytometric analysis; assay type: cell-based; conditions: h22, 5 h, 0.25 µM
# Bel-7402 [25] = assay: Cytotoxicity against human Bel7402 cells assessed as reduction in cell viability preincubated for 5 hrs followed by compound washout and measured after 48 hrs by CCK8 assay; assay type: functional, cell-based
# MCF7 [26] = assay: Cytotoxicity against human MCF7 cells assessed as reduction in cell viability preincubated for 5 hrs followed by compound washout and measured after 48 hrs by CCK8 assay; assay type: functional, cell-based
# A-375 [27] = assay: Cytotoxicity against human A375 cells assessed as reduction in cell viability preincubated for 5 hrs followed by compound washout and measured after 48 hrs by CCK8 assay; assay type: functional, cell-based
# [28] = Dark toxicity against mouse H22 cells assessed as reduction in cell viability preincubated for 5 hrs followed by compound washout and measured after 48 hrs by CCK8 assay; assay type: cell-based
# H22 [29] = assay: Induction of immunogenic cell death in mouse H22 cells assessed as increase in extracellular ATP level at 2 uM measured after 5 hrs by chemiluminescence-based assay; assay type: functional
# H22 [30] = assay: Induction of immunogenic cell death in mouse H22 cells assessed as extracellular ATP level at 2 uM measured after 24 hrs by chemiluminescence-based assay; assay type: functional
# H22 [31] = assay: Induction of immunogenic cell death in mouse H22 cells assessed as increase in extracellular HMGB1 level at 2 uM incubated for 5 hrs by ELISA; assay type: functional, cell-based
# H22 [32] = assay: Induction of immunogenic cell death in mouse H22 cells assessed as increase in calreticulin level in cell surface at 2 uM incubated for 5 hrs by Hoechst staining based fluorescence microscopic analysis; assay type: functional
# H22 [33] = assay: Antitumor activity against mouse H22 cells allografted in immunocompetent Balb/c mouse assessed as inhibition of tumour formation at 2 uM incubated with cells for 5 hrs prior to 20 mins 2 mW/cm2 UVA irradiation post compound washout followed by vaccination and measured within 5 days; assay type: functional, cell-based
# H22 [34] = assay: Antitumor activity against mouse H22 cells allografted in immunocompetent Balb/c mouse assessed as decrease in lump formation at challenge site at 2 uM incubated with cells for 5 hrs followed by compound washout prior to vaccination and subsequent H22 cells addition 10 days post vaccination and measured over 30 days; assay type: functional, cell-based
# H22 [35] = assay: Antitumor activity against mouse H22 cells allografted in immunocompetent Balb/c mouse assessed as decrease in lump formation in vaccination site at 2 uM incubated with cells for 5 hrs prior to 20 mins 2 mW/cm2 UVA irradiation post compound washout followed by vaccination and measured over 30 days; assay type: functional, cell-based
# H22 [36] = assay: Induction of immunogenic cell death in mouse H22 cells assessed as increase in intracellular calreticulin level at 2 uM measured after 5 hrs by flow cytometric analysis; assay type: functional, cell-based
smiles,measurement,setting,value
C=CC1=C(C)c2cc3[nH]c(cc4nc(cc5[nH]c(cc1n2)c(C)c5CCC(=O)O)C(CCC(=O)O)=C4C)c(C)c3C=C [PROTOPORPHYRIN],pIC50,Bel-7402 [1],6.51
Cc1cn([C@H]2C[C@H](n3cc(CNC(=O)CCCCCOc4ccc5c(c4)-c4nc6cc7ccccc7cc6nc4[C@@H]4C(C)(C)CCC[C@]54C)nn3)[C@@H](CO)O2)c(=O)[nH]c1=O,pIC50,Bel-7402 [1],7.35
same,pIC50,MCF7 [2],7.30
same,pIC50,A-375 [3],7.36
same,pIC50,H22 [4],7.49
same,Activity,Bel-7402 [5],Non-Toxic
same,Activity,MCF7 [6],Non-Toxic
same,Activity,A-375 [7],Non-Toxic
same,Activity,H22 [8],Non-Toxic
Cc1cn([C@H]2C[C@H](n3cc(CNC(=O)CCCCCOc4ccc5c(c4)-c4nc6cc7ccccc7cc6nc4[C@H]4C(C)(C)CCC[C@]54C)nn3)[C@@H](CO)O2)c(=O)[nH]c1=O,pIC50,Bel-7402 [1],7.58
same,pIC50,MCF7 [2],7.63
same,pIC50,A-375 [3],7.60
same,pIC50,H22 [4],7.54
same,Activity,Bel-7402 [5],Non-Toxic
same,Activity,MCF7 [6],Non-Toxic
same,Activity,A-375 [7],Non-Toxic
same,Activity,H22 [8],Non-Toxic
same,Activity,MCF7 [9],Active
same,Activity,H22 [10],335 nM
same,Activity,H22 [11],Active
same,Activity,H22 [12],3 ng/mL
same,Activity,H22 [13],Non-Toxic
same,Activity,H22 [14],Active
same,inhibition,H22 [15],inactive
same,inhibition,H22 [16],inactive
same,inhibition,H22 [17],Active
same,inhibition,H22 [18],Active
same,inhibition,H22 [19],Active
same,inhibition,H22 [20],Active
same,Activity,[21],Non-Toxic
same,Activity,H22 [22],Active
same,Activity,H22 [23],Active
same,Activity,H22 [24],Non-Toxic
Cc1cn([C@H]2C[C@H](n3cc(CNC(=O)CCCCCOc4ccc5c(c4)-c4nc6ccccc6nc4[C@@H]4C(C)(C)CCC[C@]54C)nn3)[C@@H](CO)O2)c(=O)[nH]c1=O,pIC50,Bel-7402 [1],6.60
O=C1c2c(O)ccc(O)c2C(=O)c2c(NCCNCCO)ccc(NCCNCCO)c21 [MITOXANTRONE],pIC50,Bel-7402 [25],6.93
same,IC90,Bel-7402 [25],1300 nM
same,pIC50,MCF7 [26],6.42
same,pIC50,A-375 [27],6.95
same,IC50 at 5 h,[28],187 nM
same,Activity,H22 [29],inactive
same,Activity,H22 [30],9 nM
same,Activity,H22 [31],inactive
same,Activity,H22 [32],Active
same,inhibition,H22 [33],Active
same,inhibition,H22 [34],inactive
same,Activity,H22 [35],Active
same,Activity,H22 [36],Active
